These results are taken from patent publication US7037502B2, “Peptide with the amino acid sequence of KVLDGQDP having anti-inflammatory properties” (priority 2001, dated 2006).

Assay [1] relates to allergic conjunctivitis to ragweed (Ambrosia trifida). Description: Allergic conjunctivitis to ragweed in guinea pig: clinical scores (conjunctival edema and redness). Format: in vivo, Hartley female guinea pig. To be noted: for Statistical evaluation of clinical scores (Mann-Whitney test), P compared to No treatment group / Statistical evaluation of clinical scores (Mann-Whitney test), P compared to Dexamethasone / Statistical evaluation of clinical scores (Mann-Whitney test), P compared to Livostine: conjunctival edema and redness score 0-4+, 20 min after allergen challenge, 12 eyes per group, eye drops; for Clinical signs (conjunctival redness and edema scores), result in words: n=12, P<0.01, SD<10%, Mann-Whitney test. Here is the method: The peptides of the present invention were analyzed in experimental model of allergic conjunctivitis to ragweed (giant ragweed; Ambrosia trifida) in guinea pig. Hartley strain of guinea pig was selected according to previous reports of conjunctival anaphylaxis (Calonge M., et al., Acta Ophthalmol 68; 470–476, 1990) and females were chosen based on the sex dimorphism of ocular mucosal immunity with the protective role of male hormones (Saruya S., et al., Act Soc Ophthalmol Jap 72; 833–845, 1968). The conjunctival redness and edema are main signs of seasonal allergic conjunctivitis and eosionphil infiltration is the hallmark of the conjunctival histology in patients with allergic conjunctivitis (Abelson M B., et al., Arch Ophthalmol. 101; 555–556, 1983; Butrus S I., et al., Int. Ophthalmol. Clin. 28; 324–328, 1988) 86 Hartley female guinea pigs, 200–250 g were housed in the animal facilities of the Asan Institute for Life Sciences (Korea), given guinea pig chow and water ad libitum, and cared for in accordance with the Declaration of Helsinki and the National Institute of Health Guide to the Care and Use of the Laboratory Animals (Korea). […] On day 15, immunized guinea pigs were divided 14 groups, 6 for each group. 11 anti-inflammatory peptides including new recombinants, dexamethasone eye drop (Maxidex, 0.1% dexamethasone, Alcon) and anti-histamine eye drop (Livostin, levocabastine, Janssen) were used for 13 groups, and no treatment for one group. Normal controls were employed as 6 non-immunized and non-treated guinea pigs. […] All the procedures were followed experimental model of allergic conjunctivitis described by Merayo-Lloves et al (Experimental model of allergic conjunctivitis to ragweed in guinea pig. Curr. Eye Res. 14; 487–494, 1995). Anti-inflammatory peptides were resolved in sterile saline (100 μmol/40 μl concentration). All peptides and dexamethasone eye solutions were challenged 3 hour prior to the last pollen application on day 15, 10 minutes after pollen application, and 4 times thereafter at the 3 hour interval. Conjunctival edema and redness were judged in room light and under an operating microscope (Zeiss, Germany). The evaluation was performed in a masked fashion at 20 min after allergen challenge and each clinical sign was scored on a scale 0–4+ (0 absent, 1+ minimal, 2+ mild, 3+ moderate, 4+ severe), adapted for guinea pig from previous report (Merayo-Lloves et al: Experimental model of allergic conjunctivitis to ragweed in guinea pig. Curr. Eye Res. 14; 487–494, 1995). Clinical scores of each group (12 eyes in each group) were analyzed.

Assay [2] concerns eosinophil infiltration of conjunctiva. Description: Allergic conjunctivitis to ragweed in guinea pig: histology, eosinophil count in conjunctiva. Format: in vivo, Hartley female guinea pig. The note with it: for Statistical evaluation of eosinophil count (Mann-Whitney test), P compared to Livostine / Statistical evaluation of eosinophil count (Mann-Whitney test), P compared to No treatment group / Statistical evaluation of eosinophil count (Mann-Whitney test), P compared to Dexamethasone: eosinophils in three fields of conjunctiva (×400), 12 eyes per group, eye drops. How it is done:
The peptides of the present invention were analyzed in experimental model of allergic conjunctivitis to ragweed (giant ragweed; Ambrosia trifida) in guinea pig. Hartley strain of guinea pig was selected according to previous reports of conjunctival anaphylaxis (Calonge M., et al., Acta Ophthalmol 68; 470–476, 1990) and females were chosen based on the sex dimorphism of ocular mucosal immunity with the protective role of male hormones (Saruya S., et al., Act Soc Ophthalmol Jap 72; 833–845, 1968). The conjunctival redness and edema are main signs of seasonal allergic conjunctivitis and eosionphil infiltration is the hallmark of the conjunctival histology in patients with allergic conjunctivitis (Abelson M B., et al., Arch Ophthalmol. 101; 555–556, 1983; Butrus S I., et al., Int. Ophthalmol. Clin. 28; 324–328, 1988)
86 Hartley female guinea pigs, 200–250 g were housed in the animal facilities of the Asan Institute for Life Sciences (Korea), given guinea pig chow and water ad libitum, and cared for in accordance with the Declaration of Helsinki and the National Institute of Health Guide to the Care and Use of the Laboratory Animals (Korea).
On day 15, immunized guinea pigs were divided 14 groups, 6 for each group. 11 anti-inflammatory peptides including new recombinants, dexamethasone eye drop (Maxidex, 0.1% dexamethasone, Alcon) and anti-histamine eye drop (Livostin, levocabastine, Janssen) were used for 13 groups, and no treatment for one group. Normal controls were employed as 6 non-immunized and non-treated guinea pigs. […] All the procedures were followed experimental model of allergic conjunctivitis described by Merayo-Lloves et al (Experimental model of allergic conjunctivitis to ragweed in guinea pig. Curr. Eye Res. 14; 487–494, 1995).
Anti-inflammatory peptides were resolved in sterile saline (100 μmol/40 μl concentration). All peptides and dexamethasone eye solutions were challenged 3 hour prior to the last pollen application on day 15, 10 minutes after pollen application, and 4 times thereafter at the 3 hour interval.
The orbits were excentrated after the animals were killed with CO2 asphyxia, and specimens were prepared for light microscopic examination. Sectioned specimens were stained with hematoxylin-eosin.
Eosinophils in the standardized fields of conjunctival epithelium, the immediate subepithelial, and the stroma were counted in three non-consecutive fields (magnification ×400) for each treatment in each experiment (12 eyes in each group).

Another assay addresses PLA2 (Sus scrofa, UniProt P00592). The note with it: Miele et al., Nature 335, 726-730, 1988; cited from earlier work.

“Also recorded” adds a separate entry of the source.

Chain of PLA2 (P00592 23-146): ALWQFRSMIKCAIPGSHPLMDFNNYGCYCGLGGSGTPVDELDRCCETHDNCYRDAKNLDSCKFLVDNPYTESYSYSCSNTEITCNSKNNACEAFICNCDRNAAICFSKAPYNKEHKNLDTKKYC

As to `C[C@@H]1C[C@H]2[C@@H]3CCC4=CC(=O)C=C[C@]4(C)[C@@]3(F)[C@@H](O)C[C@]2(C)[C@@]1(O)C(=O)CO` [Dexamethasone, dexamethasone], the “Statistical evaluation of clinical scores (Mann-Whitney test), P compared to No treatment group” value in assay [1] came to 0.000. Also, in assay [2], the “Statistical evaluation of eosinophil count (Mann-Whitney test), P compared to Livostine” value was determined as 0.932 and the “Statistical evaluation of eosinophil count (Mann-Whitney test), P compared to No treatment group” value turned out to be 0.000.
Regarding “DPVKG [Peptide E2, synthetic peptide of the invention]”, in assay [1], the “Statistical evaluation of clinical scores (Mann-Whitney test), P compared to Dexamethasone” value is on record as 0.050; the “Statistical evaluation of clinical scores (Mann-Whitney test), P compared to Livostine” value is given as 0.039; the “Statistical evaluation of clinical scores (Mann-Whitney test), P compared to No treatment group” value came out at 0.000; the “Clinical signs (conjunctival redness and edema scores), result in words” value (“Clinical signs” below) is reported as “statistically significant difference from other groups”. Also, the “Anti-inflammatory activity, overall conclusion in words” value in assay [2] (allergic conjunctivitis model in guinea pig, summary of Example 2, listed as SEQ ID NO:3) is “excellent anti-inflammatory activity in comparison with other known peptide sequences; also recorded: much higher activity than the steroidal anti-inflammatory dexamethasone”. Besides, in assay [2], the “Statistical evaluation of eosinophil count (Mann-Whitney test), P compared to Dexamethasone” value worked out at 0.028; the “Statistical evaluation of eosinophil count (Mann-Whitney test), P compared to Livostine” value is on record as 0.060; the “Statistical evaluation of eosinophil count (Mann-Whitney test), P compared to No treatment group” value was 0.000. The “Histological signs (eosinophil infiltration), result in words” value in assay [2] (n=12, P<0.01, SD<10%, Mann-Whitney test) was “statistically significant difference from other groups”.
On to GQDP [Peptide E3], for which, in assay [1], the “Statistical evaluation of clinical scores (Mann-Whitney test), P compared to Dexamethasone” value turned out to be 0.000; the “Statistical evaluation of clinical scores (Mann-Whitney test), P compared to Livostine” value is 0.002; the “Statistical evaluation of clinical scores (Mann-Whitney test), P compared to No treatment group” value is reported as 0.016. Besides, in assay [2], the “Statistical evaluation of eosinophil count (Mann-Whitney test), P compared to Dexamethasone” value is listed as 0.007; the “Statistical evaluation of eosinophil count (Mann-Whitney test), P compared to Livostine” value came out at 0.000; the “Statistical evaluation of eosinophil count (Mann-Whitney test), P compared to No treatment group” value worked out at 0.001.
Take GTLAKKLT [Peptide P2]: in assay [1], the “Statistical evaluation of clinical scores (Mann-Whitney test), P compared to Dexamethasone” value is 0.000; the “Statistical evaluation of clinical scores (Mann-Whitney test), P compared to Livostine” value is on record as 0.000; the “Statistical evaluation of clinical scores (Mann-Whitney test), P compared to No treatment group” value is listed as 0.279. In assay [2], the “Statistical evaluation of eosinophil count (Mann-Whitney test), P compared to Dexamethasone” value stood at 0.000; the “Statistical evaluation of eosinophil count (Mann-Whitney test), P compared to Livostine” value was 0.000; the “Statistical evaluation of eosinophil count (Mann-Whitney test), P compared to No treatment group” value was 0.004.
In the case of “HDMNKVLDL [Peptide A2, known peptide, antiflammin]”, in assay [1], the “Statistical evaluation of clinical scores (Mann-Whitney test), P compared to Dexamethasone” value is 0.002; the “Statistical evaluation of clinical scores (Mann-Whitney test), P compared to Livostine” value is on record as 0.003; the “Statistical evaluation of clinical scores (Mann-Whitney test), P compared to No treatment group” value is 0.382. Besides, in assay [2], the “Statistical evaluation of eosinophil count (Mann-Whitney test), P compared to Dexamethasone” value was determined as 0.000; the “Statistical evaluation of eosinophil count (Mann-Whitney test), P compared to Livostine” value turned out to be 0.000; the “Statistical evaluation of eosinophil count (Mann-Whitney test), P compared to No treatment group” value was 0.161.
With “KVLD [Peptide A4, core tetrapeptide of antiflammins]”, in assay [1], the “Statistical evaluation of clinical scores (Mann-Whitney test), P compared to Dexamethasone” value is reported as 0.000; the “Statistical evaluation of clinical scores (Mann-Whitney test), P compared to Livostine” value is reported as 0.000; the “Statistical evaluation of clinical scores (Mann-Whitney test), P compared to No treatment group” value is on record as 0.082. Also, in assay [2], the “Statistical evaluation of eosinophil count (Mann-Whitney test), P compared to Dexamethasone” value is recorded as 0.028; the “Statistical evaluation of eosinophil count (Mann-Whitney test), P compared to Livostine” value is given as 0.045; the “Statistical evaluation of eosinophil count (Mann-Whitney test), P compared to No treatment group” value is 0.001. In addition, in the assay with PLA2, the “PLA2 inhibitor activity, in words” value is “inactive”.
For the molecule “MQMKKVLDS [Peptide A3, known peptide, antiflammin]”, in assay [1], the “Statistical evaluation of clinical scores (Mann-Whitney test), P compared to Dexamethasone” value is 0.089; the “Statistical evaluation of clinical scores (Mann-Whitney test), P compared to Livostine” value amounted to 0.043; the “Statistical evaluation of clinical scores (Mann-Whitney test), P compared to No treatment group” value is 0.000; the “Clinical signs” value is “statistically significant difference from other groups”. Further, in assay [2], the “Statistical evaluation of eosinophil count (Mann-Whitney test), P compared to Dexamethasone” value is on record as 0.000; the “Statistical evaluation of eosinophil count (Mann-Whitney test), P compared to Livostine” value was 0.000; the “Statistical evaluation of eosinophil count (Mann-Whitney test), P compared to No treatment group” value came out at 0.007.
As to PVKG [Peptide E1], in assay [1], the “Statistical evaluation of clinical scores (Mann-Whitney test), P compared to Dexamethasone” value is recorded as 0.017; the “Statistical evaluation of clinical scores (Mann-Whitney test), P compared to Livostine” value came to 0.012; the “Statistical evaluation of clinical scores (Mann-Whitney test), P compared to No treatment group” value was 0.001; the “Clinical signs” value is on record as “statistically significant difference from other groups”. In assay [2], the “Statistical evaluation of eosinophil count (Mann-Whitney test), P compared to Dexamethasone” value is reported as 0.000; the “Statistical evaluation of eosinophil count (Mann-Whitney test), P compared to Livostine” value turned out to be 0.000; the “Statistical evaluation of eosinophil count (Mann-Whitney test), P compared to No treatment group” value is 0.002.
For RKLMEI (PKLMEI) [Peptide P1], in assay [1], the “Statistical evaluation of clinical scores (Mann-Whitney test), P compared to Dexamethasone” value was determined as 0.001; the “Statistical evaluation of clinical scores (Mann-Whitney test), P compared to Livostine” value is listed as 0.003; the “Statistical evaluation of clinical scores (Mann-Whitney test), P compared to No treatment group” value is 0.009; the “Clinical signs” value is on record as “statistically significant difference from other groups”. In assay [2], the “Statistical evaluation of eosinophil count (Mann-Whitney test), P compared to Dexamethasone” value came out at 0.000; the “Statistical evaluation of eosinophil count (Mann-Whitney test), P compared to Livostine” value came to 0.000; the “Statistical evaluation of eosinophil count (Mann-Whitney test), P compared to No treatment group” value amounted to 0.002.
With “SHLRKVFDK [Peptide A1, known peptide, antiflammin]”, in assay [1], the “Statistical evaluation of clinical scores (Mann-Whitney test), P compared to Dexamethasone” value is given as 0.007; the “Statistical evaluation of clinical scores (Mann-Whitney test), P compared to Livostine” value was 0.009; the “Statistical evaluation of clinical scores (Mann-Whitney test), P compared to No treatment group” value amounted to 0.003; the “Clinical signs” value is recorded as “statistically significant difference from other groups”. In assay [2], the “Statistical evaluation of eosinophil count (Mann-Whitney test), P compared to Dexamethasone” value was found to be 0.004; the “Statistical evaluation of eosinophil count (Mann-Whitney test), P compared to Livostine” value is reported as 0.006; the “Statistical evaluation of eosinophil count (Mann-Whitney test), P compared to No treatment group” value came out at 0.000.
